# From patent US20040087571A1, “Methods of using CCR1 antagonists as immunomodulatory agents” (Pfizer Inc, priority 2002, published 2004)
row,Compound,melting point [°C]
1,"CNC(=O)[C@H](CC(C)C)C[C@H](O)[C@H](CC(C)C)NC(=O)c1cnc2ccccc2c1 [Example 10, Quinoline-3-carboxylic acid (2(S)-hydroxy-1(S)-isobutyl-6-methyl-4(R)-methylcarbamoyl-heptyl)-amide]",155 to 157
2,"CC(C)C[C@H](C[C@H](O)[C@H](CC1CCCCC1)NC(=O)c1cnc2ccccc2c1)C(N)=O [Example 20, Quinoline-3-carboxylic acid (4(R)-carbamoyl-1(S)-cyclohexylmethyl-2(S)-hydroxy-6-methyl-heptyl)-amide]",186 to 188
3,"CNC(=O)[C@H](CC1CCCCC1)C[C@H](O)[C@H](CC1CCCCC1)NC(=O)c1cnc2ccccc2c1 [Example 21, Quinoline-3-carboxylic acid (5-cyclohexyl-1(S)-cyclohexylmethyl-2(S)-hydroxy-4(R)-methylcarbamoyl-pentyl)-amide]",170.5 to 172.5
4,"CC(C)C[C@H](C[C@H](O)C(Cc1ccccc1)NC(=O)c1cnc2ccccc2c1)C(=O)NCCO (stereo partly drawn) [Example 33, Quinoline-3-carboxylic acid [1-benzyl-2(S)-hydroxy-4(R)-(2-hydroxy-ethylcarbamoyl)-6-methyl-heptyl]-amide]",158 to 162
5,"CNC(=O)[C@H](CC(C)C)C[C@H](O)[C@H](Cc1ccc(OCc2ccccc2)cc1)NC(=O)c1cnc2ccccc2n1 [Example 39, Quinoxaline-2-carboxylic acid [1(S)-(4-benzyloxy-benzyl)-2(S)-hydroxy-6-methyl-4(R)-methylcarbamoyl-heptyl]-amide]",196 to 197
6,"CNC(=O)[C@H](CC(C)C)C[C@H](O)[C@H](Cc1ccc(OCc2ccccc2)cc1)NC(=O)c1cnc2ccccc2c1 [Example 40, Quinoline-3-carboxylic acid [1(S)-(4-benzyloxy-benzyl)-2(S)-hydroxy-6-methyl-4(R)-methylcarbamoyl-heptyl]-amide]",178 to 179
7,"CNC(=O)[C@H](CC(C)C)C[C@H](O)[C@H](Cc1ccc(O)cc1)NC(=O)c1cnc2ccccc2c1 [Example 44, Quinoline-3-carboxylic acid [2(S)-hydroxy-1(S)-(4-hydroxy-benzyl)-6-methyl-4(R)-methylcarbamoyl-heptyl]-amide]",220.5 to 222.5
8,"CC(C)CCNC(=O)[C@H](CC(C)C)C[C@H](O)[C@H](Cc1ccccc1)NC(=O)c1cnc2ccccc2c1 [Example 48, Quinoline-3-carboxylic acid [1(S)-benzyl-2(S)-hydroxy-6-methyl-4(R)-(3-methyl-butylcarbamoyl)-heptyl]-amide]",153 to 154
9,"CNC(=O)[C@H](CC(C)C)C[C@H](O)[C@H](Cc1ccc(OS(=O)(=O)C(F)(F)F)cc1)NC(=O)c1cnc2ccccc2c1 [Example 50, Trifluoro-methanesulfonic acid 4-{3(S)-hydroxy-7-methyl-5(R)-methylcarbamoyl-2(S)-[(quinoline-3-carbonyl)-amino]-octyl}-phenyl ester]",168 to 170
10,"CNC(=O)[C@H](CC1CCCCC1)C[C@H](O)[C@H](CC1CCCCC1)NC(=O)c1cc2ccccc2cn1 [Example 59, Isoquinoline-3-carboxylic acid (5-cyclohexyl-1(S)-cyclohexylmethyl-2(S)-hydroxy-4(R)-methylcarbamoyl-pentyl)-amide]",205 to 207
11,"CNC(=O)[C@H](CC1CCCCC1)C[C@H](O)[C@H](CC1CCCCC1)NC(=O)c1cncc2ccccc12 [Example 62, Isoquinoline-4-carboxylic acid (5-cyclohexyl-1(S)-cyclohexylmethyl-2(S)-hydroxy-4(R)-methylcarbamoyl-pentyl)-amide]",220.5 to 224
12,"CNC(=O)[C@H](CC(C)C)C[C@H](O)[C@H](Cc1ccc(O)cc1)NC(=O)c1cnc2ccccc2n1 [Example 65, Quinoxaline-2-carboxylic acid [2(S)-hydroxy-1(S)-(4-hydroxy-benzyl)-6-methyl-4(R)-methylcarbamoyl-heptyl]-amide]",170 to 172
13,"CNC(=O)[C@H](CC(C)C)C[C@H](O)[C@H](Cc1ccc(Cl)cc1)NC(=O)c1cnc2ccccc2c1 [Example 67, Quinoline-3-carboxylic acid [1(S)-(4-chloro-benzyl)-2(S)-hydroxy-6-methyl-4(R)-methylcarbamoyl-heptyl]-amide]",212.5 to 213.5
14,"CNC(=O)[C@H](CC1CCCCC1)C[C@H](O)[C@H](Cc1ccc(Cl)cc1)NC(=O)c1cnc2ccccc2c1 [Example 71, Quinoline-3-carboxylic acid [1(S)-(4-chloro-benzyl)-5-cyclohexyl-2(S)-hydroxy-4(R)-methylcarbamoyl-pentyl]-amide]",198 to 201

# Second part, the compound after the results:
row,melting point [°C],Compound
1,184 to 186,"CNC(=O)[C@H](CC(C)C)C[C@H](O)[C@H](Cc1ccc(F)cc1)NC(=O)c1cnc2ccccc2c1 [Example 89, Quinoline-3-carboxylic acid [1(S)-(4-fluoro-benzyl)-2(S)-hydroxy-6-methyl-4(R)-methylcarbamoyl-heptyl]-amide]"
2,153 to 156,"CNC(=O)[C@H](CC(C)C)C[C@H](O)[C@H](Cc1ccc(F)cc1)NC(=O)c1cnc2ccccc2n1 [Example 90, Quinoxaline-2-carboxylic acid [1(S)-(4-fluoro-benzyl)-2(S)-hydroxy-6-methyl-4(R)-methylcarbamoyl-heptyl]-amide]"
3,95 to 98,"CNC(=O)[C@H](CC(C)C)C[C@H](O)[C@H](CC1CCC(F)(F)CC1)NC(=O)c1cnc2ccccc2n1 [Example 108, Quinoxaline-2-carboxylic acid [1(S)-(4,4-difluoro-cyclohexylmethyl)-2(S)-hydroxy-6-methyl-4(R)-methylcarbamoyl-heptyl]-amide]"
4,121 to 123,"CNC(=O)[C@H](CC(C)C)C[C@H](O)[C@H](Cc1ccc2ccccc2c1)NC(=O)c1cnc2ccccc2n1 [Example 127, Quinoxaline-2-carboxylic acid (2(S)-hydroxy-6-methyl-4(R)-methylcarbamoyl-1(S)-naphthalen-2-ylmethyl-heptyl)-amide]"
5,170 to 172,"CNC(=O)[C@H](CC1CCC(F)(F)CC1)C[C@H](O)[C@H](Cc1ccccc1)NC(=O)c1cnc2ccccc2n1 [Example 132, Quinoxaline-2-carboxylic acid [1(S)-benzyl-5-(4,4-difluoro-cyclohexyl)-2(S)-hydroxy-4(R)-methylcarbamoyl-pentyl]-amide]"
6,174 to 176,"NC(=O)[C@H](CC1CCC(F)(F)CC1)C[C@H](O)[C@H](Cc1ccccc1)NC(=O)c1cnc2ccccc2n1 [Example 133, Quinoxaline-2-carboxylic acid [1(S)-benzyl-4(R)-carbamoyl-5-(4,4-difluoro-cyclohexyl)-2(S)-hydroxy-pentyl]-amide]"
7,158.5 to 159.5,"CNC(=O)[C@H](CCC(C)C)C[C@H](O)[C@H](Cc1cccc(F)c1)NC(=O)c1cnc2ccccc2n1 [Example 134, Quinoxaline-2-carboxylic acid [1(S)-(3-fluoro-benzyl)-2(S)-hydroxy-7-methyl-4(R)-methylcarbamoyl-octyl]-amide]"
8,191 to 191.5,"CC(C)CC[C@H](C[C@H](O)[C@H](Cc1cccc(F)c1)NC(=O)c1cnc2ccccc2n1)C(N)=O [Example 135, Quinoxaline-2-carboxylic acid [4(R)-carbamoyl-1(S)-(3-fluoro-benzyl)-2(S)-hydroxy-7-methyl-octyl]-amide]"
9,178 to 180,"CNC(=O)C[C@H](C[C@H](O)[C@H](Cc1ccccc1)NC(=O)c1cnc2ccccc2n1)C(=O)NC [Example 151, 2(S)-{2(S)-hydroxy-4-phenyl-3(S)-[(quinoxaline-2-carbonyl)-amino]-butyl}-N1,N4-dimethyl-succinamide]"
10,145 to 147,"CNC(=O)[C@H](CCC(C)(C)F)C[C@H](O)[C@H](Cc1ccc(F)cc1)NC(=O)c1cnc2ccccc2n1 [Example 154, Quinoxaline-2-carboxylic acid [7-fluoro-1(S)-(4-fluoro-benzyl)-2(S)-hydroxy-7-methyl-4(R)-methylcarbamoyl-octyl]-amide]"
11,206 to 207,"CC(C)(F)CC[C@H](C[C@H](O)[C@H](Cc1ccc(Cl)c(Cl)c1)NC(=O)c1cnc2ccccc2n1)C(N)=O [Example 155, Quinoxaline-2-carboxylic acid [4(R)-carbamoyl-1(S)-(3,4-dichloro-benzyl)-7-fluoro-2(S)-hydroxy-7-methyl-octyl]-amide]"
12,187 to 189,"CC(C)(F)CC[C@H](C[C@H](O)[C@H](Cc1ccc(Cl)c(Cl)c1)NC(=O)c1cnc2c(F)c(F)ccc2c1)C(N)=O [Example 156, 7,8-Difluoro-quinoline-3-carboxylic acid [4(R)-carbamoyl-1(S)-(3,4-dichloro-benzyl)-7-fluoro-2(S)-hydroxy-7-methyl-octyl]-amide]"
13,90 to 100,"NC(=O)C1(C[C@H](O)[C@H](Cc2ccccc2)NC(=O)c2cnc3ccccc3n2)Cc2ccccc2C1 [Example 164, Quinoxaline-2-carboxylic acid [1(S)-benzyl-3-(2-carbamoyl-indan-2-yl)-2(S)-hydroxy-propyl]-amide]"
14,222 to 223,"NC(=O)[C@@H](C[C@H](O)[C@H](Cc1ccccc1)NC(=O)c1cnc2ccccc2n1)C1CCCCC1 [Example 168, Quinoxaline-2-carboxylic acid (1(S)-benzyl-4-carbamoyl-4(S)-cyclohexyl-2(S)-hydroxy-butyl)-amide]"
15,178 to 180,"NC(=O)[C@@H](C[C@H](O)[C@H](Cc1ccccc1)NC(=O)c1cnc2ccccc2n1)C1CCCCC1 [Example 169, Quinoxaline-2-carboxylic acid (1(S)-benzyl-4-carbamoyl-4(S)-cyclohexyl-2(S)-hydroxy-butyl)-amide]"
16,126 to 128,"NC(=O)[C@@H](C[C@H](O)[C@H](Cc1ccccc1)NC(=O)c1cnc2ccccc2n1)C1CCCC1 [Example 171, Quinoxaline-2-carboxylic acid (1(S)-benzyl-4-carbamoyl-4(S)-cyclopentyl-2(S)-hydroxy-butyl)-amide]"
17,213 to 215,"CC(C)CC[C@H](C[C@H](O)[C@H](Cc1ccccc1F)NC(=O)c1cnc2ccccc2n1)C(N)=O [Example 175, Quinoxaline-2-carboxylic acid [4(R)-carbamoyl-1(S)-(2-fluoro-benzyl)-2(S)-hydroxy-7-methyl-octyl]-amide]"
